Experimental data published in patent EP0934745B1, “Use of androsterone derivatives for inhibiting DNA binding of ap-1 and airway smooth muscle proliferation” (CHARLOTTE-MECKLENBURG HOSPITAL doing business as Carolinas …, priority 1998, dated 1999).

System: transcription factor activator protein-1 (AP-1)
Experiment: Electrophoretic mobility shift assay of DNA binding of AP-1 in nuclear protein from treated cells
Format: cell-based, rat
Settings: pretreated 2 hours, then 10% FBS 6 hours; 50 µM DHEA; 2 and 10 µM 16α-BrEA (Figures 8A, 8B)
Experimental: To study the effect of DHEA and 16α-BrEA on activation of AP-1, a secondary response important in cellular growth and proliferation (Angel and Karin, (1991), supra) confluent monolayers of airway smooth muscle in 75-cm^2 Petri dishes were growth arrested for 24 hours in 0.5% FBS and DMEM and pretreated 2 hours with DHEA, 16α-BrEA or DMSO vehicle. Cells were then stimulated with 10% FBS in DMEM for 6 hours, nuclear protein was harvested, and electrophoretic mobility shift assays were performed as described below to determine if treatment with DHEA and 16α-BrEA impaired DNA binding of AP-1. Measurement of Cytotoxicity and Apoptosis. To assess for cytotoxicity, DHEA or 16α-BrEA were added to wells of airway smooth muscle cells previously grown to confluence in DMEM and 10% FBS. After 24 hours, media was microfuged 5 minutes and supernatant was assayed for lactate dehydrogenase activity using a commercially available assay (DG-1340K from Sigma). Cells were washed twice in DPBS and exposed to trypan blue dye (0.04% in Hanks' balanced salt solution). Cell counts were performed in five random fields using a 0.01-cm^2 ocular grid to quantitate the average number of damaged or dead cells that accumulated dye.
RNA (100 ng) was reverse-transcribed using M-MLV reverse transcriptase. […] The resulting polaroid negative was quantitated using a Bio Image Analyzer (Bio Image, Ann Arbor, MI). […]

Row | Structure (SMILES) | DNA binding of AP-1
1 | C[C@]12CC[C@H](O)C[C@@H]1CC[C@@H]1[C@@H]2CC[C@]2(C)C(=O)[C@H](Br)C[C@@H]12 [16α-BrEA, 16α-bromoepiandrosterone] | inhibit DNA binding of AP-1
2 | C[C@]12CC[C@H](O)CC1=CC[C@@H]1[C@@H]2CC[C@]2(C)C(=O)CC[C@@H]12 [DHEA, dehydroepiandrosterone] | inhibit DNA binding of AP-1
